Data on four compounds can be found in patent US9420813B2, “Sweetener” (AJINOMOTO CO., INC., priority 2007, dated 2016).

*1 amine or outer side, *2 acyl side, *3 side chain or, on linkers, in order; H or OH if unused. Where no end group is shown, it is not given here. [ ]: non-standard residue; d: D form. γGlu = O=C(O)[C@H](CCC(=O)[*:2])N[*:1]; Abu = CC[C@H](N)C(=O)O

This assay in a line: Quantitative sensory evaluation, improvement of body taste and bitterness of single high-intensity sweeteners (Examples 1 and 3). As to conditions: for Bitterness: control 0, <0 improved; for Bitterness / Body taste: n=12; for Body taste: control 0, >0 improved; for improvement of the body taste (conclusion in words): APM, sucralose or Ace-K solutions, Tables 6 to 8 and 13 to 15. More on the design: species or system human. The method, then: The quantitative sensory evaluation test was performed as follows. As for standard solutions of each sweetener, the following compounds were used. The following standard solutions were adjusted so that they each have almost the same degree of sweetness.
iii) Sucralose (0.008 g/dl)
To distilled water containing each of the above sweeteners, γ-Glu-Cys-Gly (glutathione), γ-Glu-Val-Gly, or γ-Glu-Abu-Gly was added and mixed at concentrations of 0.0001 to 1 g/dl, and then the degree of the improvement of the body taste and the improvement of the bitterness on the sweet taste was measured.
When one of the mixtures is more acidic than the standard control solution, the pH of the sample solution was adjusted with NaOH to achieve a range of pH±0.2 with respect to the pH of the standard solution before use.
The sensory evaluation for the improvement of the body taste was performed with n=12 on the basis of the following criteria: a control (obtained by adding distilled water only and without adding glutathione and/or the peptide) was defined as 0, and by using the control as a standard, the following were defined: weak: −2 points; slightly weak: −1 point; slightly strong: 1 point, and strong: 2 points. A higher score than 0 means that the sample improved the body taste.
Alternatively, the sensory evaluation for the improvement of the bitterness was performed with n=12 on the basis of the following criteria: a control (obtained by adding distilled water only and without adding glutathione and/or the peptide) was defined as 0, and by using the control as a standard, the following were defined: weak: −2 points; slightly weak: −1 point; slightly strong: 1 point, and strong: 2 points. A lower score than 0 means that the sample improves the bitterness.
The quantitative sensory evaluation test was performed as follows. As for standard solutions of each sweetener, the following compounds were used. The following standard solutions have been adjusted so as they each have almost the same degree of sweetness.
To distilled water containing each sweeteners, γ-Glu-Val-Gly or cinacalcet was mixed as a sample at concentrations of 0.0001 to 1 g/dl, respectively, and then each degree of the improvement of the body taste and the improvement of the bitterness on the sweet taste was measured.
When a mixture is more acidic than the standard control solution, the pH of the mixture was adjusted with NaOH to achieve a range of pH±0.2 with respect to the pH of the standard solution before use.
The sensory evaluation for the improvement of the body taste was performed with n=12 on the basis of the following criteria: a control (obtained by adding distilled water only and without adding a sample) was defined as 0, and by using the control as a standard, the following were defined: weak: −2 points; slightly weak: −1 point; slightly strong: 1 point, and strong: 2 points. A higher score than 0 means that the sample improves the body taste.
Alternatively, the sensory evaluation for the improvement of the bitterness was performed with n=12 on the basis of the following criteria: a control (obtained with adding distilled water only and without adding a sample) was defined as 0, and by using the control as a standard, the following were defined: weak: −2 points; slightly weak: −1 point; slightly strong: 1 point, and strong: 2 points. A lower score than 0 means that the sample improves the bitterness.

Where [1] appears, read: APM 0.025 g/dl, sample 0.0001 g/dl.
The mark [2] stands for this setting: APM 0.025 g/dl, sample 0.001 g/dl.
The mark [3] stands for this setting: Ace-K 0.025 g/dl, sample 0.0001 g/dl.
[4] abbreviates: Ace-K 0.025 g/dl, sample 0.001 g/dl.
[5] abbreviates: sucralose 0.008 g/dl, sample 0.0001 g/dl.
Where [6] appears, read: sucralose 0.008 g/dl, sample 0.001 g/dl.
The mark [7] stands for this setting: APM 0.025 g/dl, sample 0.05 g/dl.
[8] abbreviates: Ace-K 0.025 g/dl, sample 0.05 g/dl.
Where [9] appears, read: sucralose 0.008 g/dl, sample 0.05 g/dl.
Setting [10] is: APM 0.025 g/dl, sample 0.001 g/dl (γ-Glu-Abu-Gly of Table 6).
Setting [11] is: Ace-K 0.025 g/dl, sample 0.01 g/dl.
Where [12] appears, read: sucralose 0.008 g/dl, sample 0.01 g/dl.

`C[C@@H](NCCCc1cccc(C(F)(F)F)c1)c1cccc2ccccc12` [Cinacalcet, (R)—N-(3-(3-(trifluoromethyl)phenyl)propyl)-1-(1-naphthyl)ethylamine, reference compound]: the “improvement of the body taste (conclusion in words)” value is recorded as “improve the body taste at almost the same concentration”. In addition, under setting [1], the Bitterness was −0.2 points and the Body taste amounted to 0.8 points. Moreover, under setting [2], the Bitterness is recorded as −0.5 points and the Body taste amounted to 1.5 points. For the same compound, under setting [3], the Taste profile entry is “Sweet taste with growth is enhanced in middle”, the Bitterness is −0.2 points and the Body taste is 0.6 points. Moreover, under setting [4], the Taste profile entry is “Sweet taste with growth is enhanced in middle”, the Bitterness was −0.3 points and the Body taste is on record as 1.1 points. Moreover, under setting [5], the Bitterness is −0.1 points and the Body taste amounted to 0.5 points. Under setting [6], the Bitterness is recorded as −0.2 points and the Body taste was 1.1 points.
As to `N[C@@H](CCC(=O)N[C@@H](CS)C(=O)NCC(=O)O)C(=O)O` [γ-Glu-Cys-Gly, reference compound], under setting [7], the Taste profile entry was “Sweet taste is wholly enhanced”, the Bitterness was −0.5 points and the Body taste came out at 1.0 points. Further, under setting [8], the Bitterness was −0.6 points and the Body taste was 1.0 points. Under setting [9], the Taste profile result is given as “Sweet taste with growth is enhanced in middle”, the Bitterness is recorded as 0 points and the Body taste worked out at 1.0 points.
In the case of [γGlu]-Val-Gly, the “improvement of the body taste (conclusion in words)” value was “improve the body taste at almost the same concentration”. Moreover, under setting [1], the Bitterness is given as −0.2 points and the Body taste was determined as 0.5 points. Under setting [2], the Bitterness is given as −0.5 points and the Body taste is on record as 1.3 points. Besides, under setting [3], the Taste profile entry was “Sweet taste with growth is enhanced in middle”, the Bitterness is recorded as −0.6 points and the Body taste is given as 0.7 points. In addition, under setting [4], the Taste profile result is recorded as “Sweet taste with growth is enhanced in middle”, the Bitterness is on record as −1.2 points and the Body taste stood at 1.2 points. Under setting [5], the Bitterness is recorded as −0.1 points and the Body taste was 0.7 points. Further, under setting [6], the Bitterness is recorded as −0.2 points and the Body taste is given as 1.3 points.
As for [γGlu]-[Abu]-Gly, the Taste profile entry runs as follows: under setting [2], “Sweet taste is enhanced in initial taste”; under setting [10], “Sweet taste is enhanced in initial taste”. The Bitterness is, setting by setting: under setting [10], −0.1 points; under setting [2], −0.1 points; under setting [4], −0.6 points; under setting [11], −1.2 points; under setting [6], −0.1 points; under setting [12], −0.1 points. Also, the Body taste was 1.5 points under setting [10]; 0.7 points under setting [2]; 0.5 points under setting [4]; 1.1 points under setting [11]; 0.5 points under setting [6]; 1.0 points under setting [12].
